Source: PMC11714206, “Massively Parallel Screening of Toll/Interleukin‐1 Receptor (TIR)‐Derived Peptides Reveals Multiple Toll‐Like Receptors (TLRs)‐Targeting Immunomodulatory Peptides” (Advanced Science, 2024)

Molecular target: T1, MyD88^TIR (Homo sapiens, UniProt Q99836)
T1 construct: MyD88 (residues 148–296); 6xHis; made in house; host or cells: E. coli BL21 (DE3)
Assay: T‐Surf phage library (P8 and P3) selection against MyD88^TIR, four rounds, NGS read counts
Format: binding
Settings: for P8_MyD88 Rank (after) / P8_MyD88 Rank (before): P8 library; for P3_MyD88 Rank (after) / P3_MyD88 Rank (before): P3 library; for Population: 4th round of selection against MyD88 TIR, share of NGS reads
Procedure: T‐Surf libraries were screened against the immobilized TIR domains of two major human TLR adaptor proteins, MAL^TIR and MyD88^TIR, allowing cross‐species selection of TIR‐binding motifs with 190 946 TIR‐derived peptides in a single binding assay (Scheme 1). Enriched phage pools from the fourth round of selection were analyzed using NGS after barcoding the peptide‐coding regions of the phage pools.
Phage display screening was performed by coating two wells of a 96‐well plate (Maxisorp, Thermo Fisher Scientific) with 100 µL of 5 µg mL^−1 TIR domains overnight; then, the coated wells were blocked with 200 µL of blocking buffer (0.2% BSA in PBS) and set aside for 1 h at 4 °C with gentle shaking. Next, 100 µL of the phage library was added to the wells and incubated for 1 h at room temperature (RT; 20 – 22 °C) with gentle shaking. The plate was washed four times with PBS containing 0.5% Tween‐20; the bound phages were eluted by adding 100 µL of 100 mM HCl to each well. The elute was neutralized with 10 µL of 1.0 M Tris‐HCl (pH 11.0). E. coli TG1 cells were grown to the log phase (A600 = ≈0.6), and 1 mL of the culture was incubated with 100 µL of the eluted phages for 30 min at 37 °C, with shaking at 200 rpm. Next, 1 µL of M13KO7 helper phages was added, followed by incubation for 45 min at 37 °C, with shaking. Subsequently, the cells were transferred to 25 mL of 2× yeast extract tryptone/carbenicillin/kanamycin medium and incubated overnight at 37 °C with shaking at 200 rpm. The amplified phages were precipitated with 20% PEG‐8000/2.5 M NaCl to be used for the next round of selection.
The naïve T‐Surf libraries in P8 and P3 and the enriched phage pools after four rounds were barcoded for NGS as previously described.^[ [59] ^] Briefly, 5 µL of the phage pool was used as a template for 20 cycles of a 50 µL PCR reaction using […] each of forward and reverse barcoded primers and PrimeSTAR Max DNA Polymerase. The PCR products were purified using Expin Gel SV (GeneAll). The NGS samples were quantified using qPCR, following the qPCR Quantification Protocol Guide (KAPA Library Quantification kits for Illumina Sequencing Platform), and qualified using the TapeStation High Sensitivity D1000 ScreenTape (Agilent Technologies). The indexed libraries were further sequenced by Macrogen (Seoul, Republic of Korea) using the NovaSeq platform (Illumina) with 100 bp paired‐end reads. The reads were demultiplexed by barcodes and filtered for an average Phred quality score of at least 30, followed by trimming the flanking consensus sequences using Cutadapt (version 2.3). Peptide sequence populations were analyzed according to the read counts.

[1] = P8_MyD88: rank by count after grouping
[2] = P8_MyD88: rank by count before grouping
[3] = selection against MyD88 TIR, rank by count after grouping
[4] = selection against MyD88 TIR, rank by count before grouping
[5] = selection against MyD88, rank after grouping
[6] = selection against MyD88, rank before grouping
[7] = selection against MyD88, rank by count after grouping
[8] = selection against MyD88, rank by count before grouping
[9] = P3_MyD88: rank by count after grouping
[10] = P3_MyD88: rank by count before grouping
[11] = 4R selection against MyD88, rank after grouping
[12] = 4R selection against MyD88, rank before grouping
[13] = P8_MyD88 pool: P8 T-Surf phage library
[14] = P8_MyD88: rank by NGS read count after grouping
[15] = P8_MyD88: rank by NGS read count before grouping

T1 sequence (Q99836 148-296): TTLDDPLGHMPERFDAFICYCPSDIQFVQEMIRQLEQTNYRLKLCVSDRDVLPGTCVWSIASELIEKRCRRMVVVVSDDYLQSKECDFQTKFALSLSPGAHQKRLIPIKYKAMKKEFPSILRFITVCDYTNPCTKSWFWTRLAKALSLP

AEFWERLRMTVLETME
Rank (after) [1]: 398
Rank (before) [2]: 1024

AFSHWALVELLEAIEQ
P8_MyD88 Rank (after) [3]: 226
P8_MyD88 Rank (before) [4]: 385

AGDKGTDKIQTPLKNA
P3_MyD88 Rank (after) [5]: 484
P3_MyD88 Rank (before) [6]: 1942

AHDELWVLRYLLPTLE
P8_MyD88 Rank (after) [3]: 205
P8_MyD88 Rank (before) [4]: 304

ALLKKLDSGFSEEKLL
P3_MyD88 Rank (after) [3]: 267
P3_MyD88 Rank (before) [4]: 1950

APQDLEWFYERLVSLIL
Rank (after) [1]: 431
Rank (before) [2]: 2322

ARFKDMIINKWRTALKERLP
P3_MyD88 Rank (after) [7]: 744
P3_MyD88 Rank (before) [8]: 1964

ASSPWALYELVEILTA
P8_MyD88 Rank (after) [7]: 683
P8_MyD88 Rank (before) [8]: 2333

ASSSFALDQLSYFLSL
Rank (after) [1]: 189
Rank (before) [2]: 243

AVAHEISKKMKIFATI
Population (P3_MyD88 pool: P3 T-Surf phage library): 0.00262%

AVAHEISNKMKIFATI
P3_MyD88 Rank (after) [3]: 270
P3_MyD88 Rank (before) [4]: 1888

AVDIETEKIQTPLKNA
Rank (after) [9]: 157
Rank (before) [10]: 1891

AVDKETDKIQTAEKC
P3_MyD88 Rank (after) [3]: 242
P3_MyD88 Rank (before) [4]: 924

AVDKETDKIQTPLEM
Rank (after) [9]: 115
Rank (before) [10]: 601

AVDKETDKIQTPLKAQ
Rank (after) [9]: 390
Rank (before) [10]: 1919

AVDKGIDKIQTPLKNA
Rank (after) [9]: 430
Rank (before) [10]: 1896

AVDKKTDKIQTPRKNA
Rank (after) [9]: 468
Rank (before) [10]: 1938

AVDNETDKIQTPLKNE
P3_MyD88 Rank (after) [3]: 231
P3_MyD88 Rank (before) [4]: 1895

AVEKETDKIQTPPKNA
Rank (after) [9]: 173
Rank (before) [10]: 1939

AVGKETNKIQTPLKNA
Rank (after) [9]: 177
Rank (before) [10]: 1886

AVVRETQKIQPQRKNA
Rank (after) [9]: 466
Rank (before) [10]: 1885

AWIREQLRTALKERPP
P3_MyD88 Rank (after) [11]: 595
P3_MyD88 Rank (before) [12]: 1975

AWIWGWREALVYIGGI
P8_MyD88 Rank (after) [3]: 254
P8_MyD88 Rank (before) [4]: 448

AWTDDPVGQLFFWESL
Rank (after) [1]: 168
Rank (before) [2]: 189
Population [13]: 0.00655%

AWVGDYLLPNLEGPAG
P8_MyD88 Rank (after) [11]: 672
P8_MyD88 Rank (before) [12]: 2318

AWVWEYLLPNLVGPAG
P8_MyD88 Rank (after) [11]: 668
P8_MyD88 Rank (before) [12]: 2317

AYILNFIKGNVMFEFL
Rank (after) [1]: 129
Rank (before) [2]: 140
Population [13]: 0.0116%

AYSPWALDELVKIIEA
P8_MyD88 Rank (after) [3]: 214
P8_MyD88 Rank (before) [4]: 303

CALCELLQILHARGLF
P8_MyD88 Rank (after) [7]: 725
P8_MyD88 Rank (before) [8]: 1345

CALDELLHILHARELF
P8_MyD88 Rank (after) [7]: 724
P8_MyD88 Rank (before) [8]: 1346

CARDELLQILHARELF
Rank (after) [14]: 876
Rank (before) [15]: 1349

CLLLSVFQTLFARRTE
Rank (after) [14]: 877
Rank (before) [15]: 1353

DEAWFLTKLRISLEHL
P8_MyD88 Rank (after) [5]: 576
P8_MyD88 Rank (before) [6]: 2581

DFLKWDNEAIMIKKIA
Rank (after) [14]: 993
Rank (before) [15]: 2369

DFLLTILEAMKTKNQL
Rank (after) [1]: 148
Rank (before) [2]: 159
Population [13]: 0.00925%

DFLNWFIAPNSTVIEN
Rank (after) [1]: 457
Rank (before) [2]: 2364

DFLNWFYERLVSLFL
P8_MyD88 Rank (after) [11]: 622
P8_MyD88 Rank (before) [12]: 2352

DFLSHLIKRLAVCTS
Rank (after) [14]: 896
Rank (before) [15]: 2347

DFRSHLIETFGRMFIN
Rank (after) [1]: 465
Rank (before) [2]: 2370

DFSHFWLFEAGGDAD
Rank (after) [14]: 946
Rank (before) [15]: 2377

DFSHFWLFEARGDA
Rank (after) [1]: 387
Rank (before) [2]: 2381
